# Like-named read-outs stand apart in the source and are kept apart here.
# Key:
# Format in all cases: cell-based
# [1] = system: Septoria tritici (St); experiment: In vitro pathogen growth inhibition assay, St; conditions: Zymoseptoria tritici, 48 h
# Summary of the method: (§1)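 Spores in 17% V8 liquid medium, or 1.5 mm Rs mycelial plugs in ¼ PDB, incubated with compound; final concentration checked by OD600 for precipitation. OD readings at 24 and 48 h, blank-subtracted, plus visual ratings; value is concentration giving ≥90% growth inhibition.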
# [2] = system: Phytophthora capsici (Pc); experiment: In vitro pathogen growth inhibition assay, Pc; conditions: 48 h
# Summary of the method: (§2)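 Spores of Dm, Fv and Pc were diluted in 17% V8 liquid medium; Rs used 1.5 mm mycelial plugs in ¼ PDB. Compounds from 2.5 mg/ml DMSO stocks were combined with inoculum, growth was read by OD600 at 24 and 48 h with blank subtraction, and the reported value is the concentration giving ≥90% inhibition.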
# [3] = system: Fusarium moniliforme (Fm); experiment: In vitro pathogen growth inhibition assay, Fm; conditions: Fusarium verticillioides
# Summary of the method: as §1
# [4] = system: Rhizoctonia solani (Rs); experiment: In vitro pathogen growth inhibition assay, Rs (mycelial plugs); conditions: Rhizoctonia solani, 48 h
# Summary of the method: as §2
# [5] = system: Fusarium virguliforme (Fv); experiment: In vitro pathogen growth inhibition assay, Fv
# Summary of the method: as §2
# [6] = system: Botrtyis cinerea (Bc); experiment: In vitro pathogen growth inhibition assay, Bc; conditions: 48 h
# Summary of the method: as §1
# [7] = system: Collectotrichum graminicola (Cg); experiment: In vitro pathogen growth inhibition assay, Cg; conditions: 48 h
# Summary of the method: as §1
# [8] = system: Diplodia maydis (Dm); experiment: In vitro pathogen growth inhibition assay, Dm; conditions: Stenocarpella maydis, 48 h
# Summary of the method: as §2
# [9] = concentration sufficient to ≥90% inhibition of growth, 48 hours vs 2% DMSO control, read-out: Compound Concentration (ppm) for ≥90% inhibition, St
# [10] = concentration sufficient to ≥90% inhibition of growth, 48 hours vs 2% DMSO control, read-out: Compound Concentration (ppm) for ≥90% inhibition, Pc
# [11] = concentration sufficient to ≥90% inhibition of growth, 48 hours vs 2% DMSO control, read-out: Compound Concentration (ppm) for ≥90% inhibition, Fm
# [12] = concentration sufficient to ≥90% inhibition of growth, 48 hours vs 2% DMSO control, read-out: Compound Concentration (ppm) for ≥90% inhibition, Rs
# [13] = concentration sufficient to ≥90% inhibition of growth, 48 hours vs 2% DMSO control, read-out: Compound Concentration (ppm) for ≥90% inhibition, Fv
# [14] = concentration sufficient to ≥90% inhibition of growth, 48 hours vs 2% DMSO control, read-out: Compound Concentration (ppm) for ≥90% inhibition, Bc
# [15] = concentration sufficient to ≥90% inhibition of growth, 48 hours vs 2% DMSO control, read-out: Compound Concentration (ppm) for ≥90% inhibition, Cg
# [16] = concentration sufficient to ≥90% inhibition of growth, 48 hours vs 2% DMSO control, read-out: Compound Concentration (ppm) for ≥90% inhibition, Dm
# [17] = ≥90% growth inhibition, 48 hours, vs 2% DMSO control, read-out: Compound Concentration (ppm) sufficient for ≥90% inhibition of St
# [18] = ≥90% growth inhibition, 48 hours, vs 2% DMSO control, read-out: Compound Concentration (ppm) sufficient for ≥90% inhibition of Pc
# [19] = ≥90% growth inhibition, 48 hours, vs 2% DMSO control, read-out: Compound Concentration (ppm) sufficient for ≥90% inhibition of Fm
# [20] = ≥90% growth inhibition, mycelial plugs, 48 hours, vs 2% DMSO control, read-out: Compound Concentration (ppm) sufficient for ≥90% inhibition of Rs
# [21] = ≥90% growth inhibition, 48 hours, vs 2% DMSO control, read-out: Compound Concentration (ppm) sufficient for ≥90% inhibition of Fv
# [22] = ≥90% growth inhibition, 48 hours, vs 2% DMSO control, read-out: Compound Concentration (ppm) sufficient for ≥90% inhibition of Bc
# [23] = ≥90% growth inhibition, 48 hours, vs 2% DMSO control, read-out: Compound Concentration (ppm) sufficient for ≥90% inhibition of Cg
# [24] = ≥90% growth inhibition, 48 hours, vs 2% DMSO control, read-out: Compound Concentration (ppm) sufficient for ≥90% inhibition of Dm
# [25] = ≥90% inhibition, 48 hours vs 2% DMSO control, read-out: Compound Concentration (ppm) sufficient for ≥90% inhibition of growth, St
# [26] = ≥90% inhibition, 48 hours vs 2% DMSO control, read-out: Compound Concentration (ppm) sufficient for ≥90% inhibition of growth, Pc
# [27] = ≥90% inhibition, 48 hours vs 2% DMSO control, read-out: Compound Concentration (ppm) sufficient for ≥90% inhibition of growth, Fm
# [28] = ≥90% inhibition, mycelial plugs, 48 hours vs 2% DMSO control, read-out: Compound Concentration (ppm) sufficient for ≥90% inhibition of growth, Rs
# [29] = ≥90% inhibition, 48 hours vs 2% DMSO control, read-out: Compound Concentration (ppm) sufficient for ≥90% inhibition of growth, Fv
# [30] = ≥90% inhibition, 48 hours vs 2% DMSO control, read-out: Compound Concentration (ppm) sufficient for ≥90% inhibition of growth, Bc
# [31] = ≥90% inhibition, 48 hours vs 2% DMSO control, read-out: Compound Concentration (ppm) sufficient for ≥90% inhibition of growth, Cg
# [32] = ≥90% inhibition, 48 hours vs 2% DMSO control, read-out: Compound Concentration (ppm) sufficient for ≥90% inhibition of growth, Dm
SMILES,"IC90 [1, 9] [µg/mL]","IC90 [2, 10] [µg/mL]","IC90 [3, 11] [µg/mL]","IC90 [4, 12] [µg/mL]","IC90 [5, 13] [µg/mL]","IC90 [6, 14] [µg/mL]","IC90 [7, 15] [µg/mL]","IC90 [8, 16] [µg/mL]","IC90 [1, 17] [µg/mL]","IC90 [2, 18] [µg/mL]","IC90 [3, 19] [µg/mL]","IC90 [4, 20] [µg/mL]","IC90 [1, 25] [µg/mL]","IC90 [2, 26] [µg/mL]","IC90 [3, 27] [µg/mL]","IC90 [4, 28] [µg/mL]","IC90 [5, 29] [µg/mL]","IC90 [6, 30] [µg/mL]","IC90 [7, 31] [µg/mL]","IC90 [8, 32] [µg/mL]",other results
COc1ccc(F)cc1[C@@H](Cn1c(=O)n(C(C)(C)C(=O)NC(C)C)c(=O)c2c(C)c(-n3nccn3)sc21)OC(C)=O [Compound I-322],> 50,> 50,10,> 50,≥ 10,10,> 50,> 50,,,,,,,,,,,,,
COCCO[C@@H](Cn1c(=O)n(C(C)(C)C(=O)NC(C)C)c(=O)c2c(C)c(-n3cccn3)sc21)c1cc(F)ccc1OC [Compound I-163],,,,,,,,,> 50,> 50,2,10,,,,,,,,,"IC90 [5, 21]: 2 µg/mL; IC90 [6, 22]: 10 µg/mL; IC90 [7, 23]: 50 µg/mL; IC90 [8, 24]: ≥ 10 µg/mL"
COCCO[C@@H](Cn1c(=O)n([C@@H](C)C(=O)NC(C)C)c(=O)c2c(C)c(-n3cccn3)sc21)c1cc(F)ccc1OC [Compound I-311],> 50,> 50,50,> 50,> 50,50,> 50,> 50,,,,,,,,,,,,,
CCO[C@@H](Cn1c(=O)n(C(C)(C)C(=O)NC(C)C)c(=O)c2c(C)c(-n3cccn3)sc21)c1cc(F)ccc1OC [Compound I-125],,,,,,,,,,,,,> 50,> 50,0.4,≥ 2,0.4,2,≥ 2,> 50,
CCOC(=O)c1sc2c(c1C)c(=O)n(C(C)(C)C(=O)N1CCCC1)c(=O)n2C[C@H](OCCC#N)c1cc(F)ccc1OC [Compound I-182],,,,,,,,,> 50,> 50,0.08,0.4,,,,,,,,,"IC90 [5, 21]: 2 µg/mL; IC90 [6, 22]: 2 µg/mL; IC90 [7, 23]: 2 µg/mL; IC90 [8, 24]: 2 µg/mL"
COc1ccc(F)cc1[C@H](Cn1c(=O)n(CC(=O)NC(C)C)c(=O)c2c(C)c(-n3nccn3)sc21)OCCO [Compound I-087],,,,,,,,,,,,,> 50,> 50,0.08,2,2,2,2,> 50,
COc1ccc(F)cc1[C@H](Cn1c(=O)n(C(C)(C)C(N)=O)c(=O)c2c(C)c(-n3cccn3)sc21)OCCC#N [Compound I-190],> 50,> 50,10,10,50,10,> 50,> 50,,,,,,,,,,,,,
COCCO[C@@H](Cn1c(=O)n(C(C)(C)C(=O)NC2CCCCC2)c(=O)c2c(C)c(-n3cccn3)sc21)c1cc(F)ccc1OC [Compound I-293],,,,,,,,,> 50,> 50,2,> 50,,,,,,,,,"IC90 [5, 21]: 50 µg/mL; IC90 [6, 22]: 10 µg/mL; IC90 [7, 23]: > 50 µg/mL; IC90 [8, 24]: > 50 µg/mL"
COc1ccc(F)cc1[C@H](Cn1c(=O)n(C(C)(C)C(=O)NC2CCCCC2)c(=O)c2c(C)c(-n3nccn3)sc21)OC1CCOCC1 [Compound I-039],,,,,,,,,,,,,≥ 2,> 50,0.08,0.4,0.4,0.4,2,0.4,
C=CCO[C@@H](Cn1c(=O)n(C(C)(C)C(=O)NC(C)C)c(=O)c2c(C)c(-n3nccn3)sc21)c1cc(F)ccc1OC [Compound I-077],,,,,,,,,,,,,> 50,> 50,0.08,0.4,0.4,2,2,2,

# — patent US10941157B2, “Pesticidal compositions and uses thereof” (Gilead Apollo, LLC, priority 2015, dated 2021)
